molecular target: T1, human Werner helicase (WRN-BV08, Uniprot Q14191, amino acids 517-1235 with L1074F point mutation) (Homo sapiens, UniProt Q14191, L1074F); assay: WRN (BV08) ADP-Glo Assay; format: biochemical; settings: 0.15 nM WRN, 5 μM ATP, 0.1 nM DNA duplex, 15 min preincubation, 60 min at 25° C., pH 7.5, 1% DMSO; read-out: ADP-Glo_hWRN_IC50
T1 construct: Uniprot Q14191, amino acids 517-1235 with L1074F point mutation; TEV-cleavable 8×His (C, cleaved yes); made in house; host or cells: Sf9 insect cells (baculovirus)
T1 sequence (Q14191 with tags, fused parts or gaps L1074F limits assumed): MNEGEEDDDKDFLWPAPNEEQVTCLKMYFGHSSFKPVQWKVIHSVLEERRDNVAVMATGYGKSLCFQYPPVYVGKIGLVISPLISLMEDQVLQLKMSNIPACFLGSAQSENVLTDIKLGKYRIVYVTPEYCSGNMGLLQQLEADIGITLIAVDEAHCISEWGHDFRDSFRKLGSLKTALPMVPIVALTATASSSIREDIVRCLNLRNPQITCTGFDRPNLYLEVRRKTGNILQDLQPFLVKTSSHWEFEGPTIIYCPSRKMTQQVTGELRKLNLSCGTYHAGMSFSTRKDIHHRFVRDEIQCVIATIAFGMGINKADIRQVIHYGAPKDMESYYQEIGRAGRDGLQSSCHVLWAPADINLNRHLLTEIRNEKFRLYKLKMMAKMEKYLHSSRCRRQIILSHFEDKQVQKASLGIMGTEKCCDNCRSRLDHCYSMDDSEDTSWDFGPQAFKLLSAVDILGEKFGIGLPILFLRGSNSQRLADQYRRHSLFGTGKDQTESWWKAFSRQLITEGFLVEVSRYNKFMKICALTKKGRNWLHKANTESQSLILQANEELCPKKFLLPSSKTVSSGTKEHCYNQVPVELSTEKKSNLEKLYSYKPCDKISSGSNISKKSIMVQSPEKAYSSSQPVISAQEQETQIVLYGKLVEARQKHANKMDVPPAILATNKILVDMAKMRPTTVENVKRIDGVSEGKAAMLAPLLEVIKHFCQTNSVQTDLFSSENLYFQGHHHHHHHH
Method in brief: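 Untagged WRN (Sf9-expressed, TEV-cleaved) at 0.15 nM was preincubated 15 min at 25 °C with compound, then reacted 60 min at 25 °C with 5 μM ATP and 0.1 nM DNA duplex in Bicine pH 7.5, 1 mM MgCl2. ADP-Glo luminescence gave % inhibition; IC50 by four-parameter fit.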

SMILES	IC50 [µM]
O=C(CN1CCC(C(F)(F)F)CC1)N(Cc1ccncc1)C1C=CS(=O)(=O)C1 (stereo not drawn) [I-572, N-(1,1-dioxo-2,3-dihydro-1lambda6-thiophen-3-yl)-N-[(pyridin-4-yl)methyl]-2-[4-(trifluoromethyl)piperidin-1-yl]acetamide]	> 50
O=C(Cn1cc2cc(C(F)(F)F)ccc2n1)N(Cc1ccncc1)C1C=CS(=O)(=O)C1 (stereo not drawn) [I-589, N-(1,1-dioxo-2,3-dihydro-1lambda6-thiophen-3-yl)-N-[(pyridin-4-yl)methyl]-2-[5-(trifluoromethyl)-2H-indazol-2-yl]acetamide]	0.5 to 5
COc1cc(CN(C(=O)C(OCC#N)c2ccc(-c3ccc(F)c(F)c3)cc2F)[C@@H]2C=CS(=O)(=O)C2)ccn1 (single isomer, unassigned) [I-692, (2R*)-2-(cyanomethoxy)-N-[(3R)-1,1-dioxo-2,3-dihydro-1lambda6-thiophen-3-yl]-N-[(2-methoxypyridin-4-yl)methyl]-2-{3,3′,4′-trifluoro-[1,1′-biphenyl]-4-y]}acetamide]	10 to 50
COc1cc(CN(C(=O)Cc2ccc(-c3ccc(F)cn3)c(O)c2)C2C=CS(=O)(=O)C2)ccn1 (stereo not drawn) [I-668, N-(1,1-dioxo-2,3-dihydro-1lambda6-thiophen-3-yl)-2-[4-(5-fluoropyridin-2-yl)-3-hydroxyphenyl]-N-[(2-methoxypyridin-4-yl)methyl]acetamide]	5 to 10
COc1cc(CN(C(=O)C(C(=O)N(C)C)c2ccc(-c3ccc(F)cc3)cc2F)C2C=CS(=O)(=O)C2)ccn1 (single isomer, unassigned) [I-267, (2R**)-2-{3,4′-difluoro-[1,1′-biphenyl]-4-yl}-N-[(3R*)-1,1-dioxo-2,3-dihydro-1lambda6-thiophen-3-yl]-N-[(2-methoxypyridin-4-yl)methyl]-N′,N′-dimethylpropanediamide]	10 to 50
COc1cc(CN(C(=O)Cc2ccc(S(F)(F)(F)(F)F)cc2)C2C=CS(=O)(=O)C2)cc(OC)n1 (stereo not drawn) [I-684, N-[(2,6-dimethoxypyridin-4-yl)methyl]-N-(1,1-dioxo-2,3-dihydro-1lambda6-thiophen-3-yl)-2-[4-(pentafluoro-lambda6-sulfanyl)phenyl]acetamide]	0.5 to 5
COc1cc(CN(C(=O)Cc2ccc(-c3ccc(F)cc3O)nc2)C2C=CS(=O)(=O)C2)ccn1 (single isomer, unassigned) [I-353]	10 to 50
COc1cc(CN(C(=O)Cc2ccc([C@@H]3C[C@H]3C(F)(F)F)cc2)[C@@H]2C=CS(=O)(=O)C2)ccn1 (mixture of isomers) [I-784, N-[(3R)-1,1-dioxo-2,3-dihydro-1lambda6-thiophen-3-yl]-N-[(2-methoxypyridin-4-yl)methyl]-2-{4-[(1RS,2RS)-2-(trifluoromethyl)cyclopropyl]phenyl}acetamide]	5 to 10
O=C(Cc1ccc(C(F)(F)F)cn1)N(Cc1ccncc1)C1C=CS(=O)(=O)C1 (stereo not drawn) [I-389, N-(1,1-dioxo-2,3-dihydro-1lambda6-thiophen-3-yl)-N-[(pyridin-4-yl)methyl]-2-[5-(trifluoromethyl)pyridin-2-yl]acetamide]	> 50
COC(C(=O)N(Cc1ccnc(C(C)(C)O)c1)C1C=CS(=O)(=O)C1)c1ccc(-c2ccc(F)c(F)c2)cc1F (stereo not drawn) [I-18, N-(1,1-dioxo-2,3-dihydro-1lambda6-thiophen-3-yl)-N-{[2-(2-hydroxypropan-2-yl)pyridin-4-yl]methyl}-2-methoxy-2-{3,3′,4′-trifluoro-[1,1′-biphenyl]-4-yl}acetamide]	< 0.5
O=C(C1CC(c2ccccc2)C1)N(Cc1ccncc1)C1C=CS(=O)(=O)C1 (stereo not drawn) [I-570, N-(1,1-dioxo-2,3-dihydro-1lambda6-thiophen-3-yl)-3-phenyl-N-[(pyridin-4-yl)methyl]cyclobutane-1-carboxamide]	> 50
CN(C)C(=O)CC(C(=O)N(Cc1ccnc(C(C)(C)O)c1)C1C=CS(=O)(=O)C1)c1ccc(S(F)(F)(F)(F)F)cc1 (stereo not drawn) [I-460, N-(1,1-dioxo-2,3-dihydro-1lambda6-thiophen-3-yl)-N-{[2-(2-hydroxypropan-2-yl)pyridin-4-yl]methyl}-N′,N′-dimethyl-2-[4-(pentafluoro-lambda6-sulfanyl)phenyl]butanediamide]	> 50
COc1cc(CN(C(=O)Cc2ccc(-c3cscn3)cc2F)C2C=CS(=O)(=O)C2)ccn1 (stereo not drawn) [I-363, N-(1,1-dioxo-2,3-dihydro-1lambda6-thiophen-3-yl)-2-[2-fluoro-4-(1,3-thiazol-4-yl)phenyl]-N-[(2-methoxypyridin-4-yl)methyl]acetamide]	10 to 50
CC(C)(O)c1cc(CN(C(=O)C(c2ccc(-c3ccc(F)c(F)c3)cc2F)n2cccn2)[C@@H]2C=CS(=O)(=O)C2)ccn1 (single isomer, unassigned) [I-682]	< 0.5
O=C(Cc1ccc(S(F)(F)(F)(F)F)cc1)N(Cc1cnoc1)C1C=CS(=O)(=O)C1 (stereo not drawn) [I-648, N-(1,1-dioxo-2,3-dihydro-1lambda6-thiophen-3-yl)-N-[(1,2-oxazol-4-yl)methyl]-2-[4-(pentafluoro-lambda6-sulfanyl)phenyl]acetamide]	5 to 10
O=C(C1CNc2cc(-c3ccc(F)cc3)ccc21)N(Cc1ccncc1)C1C=CS(=O)(=O)C1 (stereo not drawn) [I-124, N-(1,1-dioxo-2,3-dihydro-1lambda6-thiophen-3-yl)-6-(4-fluorophenyl)-N-[(pyridin-4-yl)methyl]-2,3-dihydro-1H-indole-3-carboxamide]	0.5 to 5
COc1cc(CN(C(=O)Cn2cc(-c3ccccc3)cn2)C2C=CS(=O)(=O)C2)ccn1 (stereo not drawn) [I-94, N-(1,1-dioxo-2,3-dihydro-1lambda6-thiophen-3-yl)-N-[(2-methoxypyridin-4-yl)methyl]-2-(4-phenyl-1H-pyrazol-1-yl)acetamide]	0.5 to 5
O=C(Cn1cc(-c2ccc(F)c(F)c2)cn1)N(Cc1nc(C2CC2)cs1)C1C=CS(=O)(=O)C1 (single isomer, unassigned) [I-5, N-((4-cyclopropylthiazol-2-yl)methyl)-2-(4-(3,4-difluorophenyl)-1H-pyrazol-1-yl)-N-(1,1-dioxido-2,3-dihydrothiophen-3-yl)acetamide]	< 0.5
COc1cc(CN(C(=O)Cc2ccc(S(F)(F)(F)(F)F)cc2)C2C=CS(=O)(=O)C2)nc(N(C)C)n1 (stereo not drawn) [I-635, N-{[2-(dimethylamino)-6-methoxypyrimidin-4-yl]methyl}-N-(1,1-dioxo-2,3-dihydro-1lambda6-thiophen-3-yl)-2-[4-(pentafluoro-lambda6-sulfanyl)phenyl]acetamide]	0.5 to 5

More lines, now with the values ahead:

IC50 [µM]	SMILES
0.5 to 5	O=C(Cc1ccc(-n2cccc2)cc1F)N(Cc1ccncc1)C1C=CS(=O)(=O)C1 (stereo not drawn) [I-161, N-(1,1-dioxo-2,3-dihydro-1lambda6-thiophen-3-yl)-2-[2-fluoro-4-(1H-pyrrol-1-yl)phenyl]-N-[(pyridin-4-yl)methyl]acetamide]
0.5 to 5	COCc1cc(CN(C(=O)Cc2ccc(-n3cccc3C)cc2F)C2C=CS(=O)(=O)C2)ccn1 (stereo not drawn) [I-118, N-(1,1-dioxo-2,3-dihydro-1lambda6-thiophen-3-yl)-2-[2-fluoro-4-(2-methyl-1H-pyrrol-1-yl)phenyl]-N-{[2-(methoxymethyl)pyridin-4-yl]methyl}acetamide]
> 50	O=C(Cc1ccc2oc3ccccc3c2c1)N(Cc1ccncc1)C1C=CS(=O)(=O)C1 (stereo not drawn) [I-428, N-(1,1-dioxo-2,3-dihydro-1lambda6-thiophen-3-yl)-2-{8-oxatricyclo[7.4.0.0^{2,7}]trideca-1(13),2,4,6,9,11-hexaen-4-yl}-N-[(pyridin-4-yl)methyl]acetamide]
10 to 50	O=C(O)c1cccc(CN(C(=O)Cc2ccc(-n3cccc3)cc2)C2C=CS(=O)(=O)C2)c1 (stereo not drawn) [I-352, 3-{[N-(1,1-dioxo-2,3-dihydro-1lambda6-thiophen-3-yl)-2-[4-(1H-pyrrol-1-yl)phenyl]acetamido]methyl}benzoic acid]
5 to 10	O=C(Cc1ccc(-n2cccc2)cc1)N(Cc1ccc(F)cc1F)C1C=CS(=O)(=O)C1 (stereo not drawn) [I-242, N-[(2,4-difluorophenyl)methyl]-N-(1,1-dioxo-2,3-dihydro-1lambda6-thiophen-3-yl)-2-[4-(1H-pyrrol-1-yl)phenyl]acetamide]
0.5 to 5	O=C(Cc1ccc(-n2cccc2)cc1)N(Cc1ccnc(-c2ccccc2)c1)C1C=CS(=O)(=O)C1 (stereo not drawn) [I-297, N-(1,1-dioxo-2,3-dihydro-1lambda6-thiophen-3-yl)-N-[(2-phenylpyridin-4-yl)methyl]-2-[4-(1H-pyrrol-1-yl)phenyl]acetamide]
> 50	O=C(Cc1ccc(-n2cccc2)cc1F)N(Cc1ccncc1)C1C=CS(=O)(=O)C1 (single isomer, unassigned) [I-520]
5 to 10	Cc1cc(-c2ccc(F)cc2)ccc1CC(=O)N(Cc1ccncc1)C1C=CS(=O)(=O)C1 (stereo not drawn) [I-227, N-(1,1-dioxo-2,3-dihydro-1lambda6-thiophen-3-yl)-2-{4′-fluoro-3-methyl-[1,1′-biphenyl]-4-yl}-N-[(pyridin-4-yl)methyl]acetamide]
> 50	Cn1c(CC(=O)N(Cc2ccncc2)C2C=CS(=O)(=O)C2)nnc1-c1ccccc1 (stereo not drawn) [I-443, N-(1,1-dioxo-2,3-dihydro-1lambda6-thiophen-3-yl)-2-(4-methyl-5-phenyl-4H-1,2,4-triazol-3-yl)-N-[(pyridin-4-yl)methyl]acetamide]
5 to 10	O=C(Cc1ccc(-n2cccc2)cc1)N(Cc1ccccc1)C1C=CS(=O)(=O)C1 (stereo not drawn) [I-290, N-benzyl-N-(1,1-dioxo-2,3-dihydro-1lambda6-thiophen-3-yl)-2-[4-(1H-pyrrol-1-yl)phenyl]acetamide]
0.5 to 5	O=C(Cc1ncc(-c2ccc(F)cc2)cc1F)N(Cc1ccncc1)C1C=CS(=O)(=O)C1 (stereo not drawn) [I-205, N-(1,1-dioxo-2,3-dihydro-1lambda6-thiophen-3-yl)-2-[3-fluoro-5-(4-fluorophenyl)pyridin-2-yl]-N-[(pyridin-4-yl)methyl]acetamide]
